Experimental data: patent US20070225278A1, “Methods for treating cognitive and other disorders” (priority 2006, published 2007)

How the values were obtained:
male Sprague-Dawley rats = type: in vivo, rat; conditions: minimal dose at which sexual dysfunction occurs, male rats
Description: In summary, male rats were allowed access to sexually receptive females during a single overnight mating session and then administered antidepressants with varying degrees of clinically reported sexual deficits. […] Animals
Intact male Sprague-Dawley rats (Charles River Laboratories) arrived at 7 weeks of age and were allowed to habituate for one week prior to sexual experience or behavioral testing. Rats were group housed in same-sex colony rooms with food and water provided ad libitum. All animals were maintained under a 12:12 light-dark cycle (lights on at 6:00 am) with behavioral experiments performed during the light hours beginning at noon.
Ovariectomized female Long-Evans rats (Charles River Laboratories) were individually housed and brought into behavioral estrus weekly by subcutaneous injection of 25 ug 17-B estradiol benzoate in 0.1 ml corn oil 48 hours prior to testing, followed by subcutaneous administration of 2.5 mg progesterone in 0.1 ml corn oil 4 to 6 hours before testing.
For subjects assigned into the sexually experienced group, the following procedures were performed. Individual male rats were placed into the home cage of a a sexually receptive female for overnight mating sessions. The cage was a Plexiglas cage measuring 10×12 inches, with food and water ad libitum. Mating pairs were randomly assigned. […] Following overnight mating sessions, males and females were separated from each other and placed back into same-sex colony rooms where they were group-housed until the time of behavioral testing.
To determine the effects of female stimuli on non-contact penile erections, sexually receptive females were brought into the testing room 30 minutes prior to the start of behavioral testing in order to provide female visual, olfactory, and auditory stimuli for males. The testing arena for observing non-contact penile erections in male rats consisted of an empty rat size Plexiglas cage (11×10 inches) containing no bedding, with an aerated plastic lid and a total ceiling height of 12 inches. […] A penile erection consisted of observation of the male rat in a hunched position grasping the penis with the forepaws and followed by a series of pelvic thrusts. The number of penile erections were quantified over a 30 minute observation session.
Following sexual experience (as described above), male subjects (n=8 per group) were administered either 10 mg/kg/day fluoxetine or saline vehicle for 14 days. On the 14th day, fluoxetine treatment was co-administered with either saline or apomorphine (0.1-0.3 mg/kg, sc) or yohimbine (0.1-0.3 mg/kg, sc) or sildenafil (0.1-0.3 mg/kg, sc) in separate experiments. Non-contact penile erections were evaluated in 30 minute test sessions in the presence of sexually receptive female rats.
Fluoxetine HCl (Tocris), desipramine (Sigma, St. Louis, Mo.) and bupropion HCl (Toronto Research Chemicals, Canada) were dissolved in 0.9% sterile saline vehicle and injected intraperitoneally (i.p.) once daily. On the day of behavioral testing, antidepressants were administered intraperitoneally (i.p.) as one hour pretreatments. For reversal experiments, apomorphine (Sigma, St. Louis, Mo.), yohimbine (Sigma, St. Louis, Mo.) or sildenafil (Toronto Research Chemicals, Canada) were used. Apomorphine was dissolved in 0.9% sterile saline vehicle and injected subcutaneously (s.c.). Yohimbine was dissolved in dH2O facilitated with 1N HCl, followed by addition of 1N NaOH for titration (pH=7) and administered intraperitoneally (i.p.). Sildenafil was dissolved in 0.9% sterile saline vehicle and administered intraperitoneally (i.p.). With the exception of fluoxetine which was administered in a dose volume of 2 ml/kg, all other test compounds were administered in a dose volume of 1 ml/kg. On the day of behavioral testing, both fluoxetine and the reversal agent (apomorphine, yohimbine, or sildenafil) were co-administered as 0 minute pretreatments. […]

[1] = tested on: extracellular glutamate levels in the rat mPFC; assay: In vivo microdialysis, glutamate in medial prefrontal cortex; conditions: 17 mg/kg s.c., acute
Protocol: Animals: Adult male Sprague-Dawley rats (Charles River, Wilmington, Mass.) weighing 280-350 g at the time of surgery were used for all microdialysis experiments. Adult male Long-Evans rats (Charles River, Wilmington, Mass.) weighing 180-220 g were used for NOR studies. Rats were housed individually for recognition memory studies. All animals had free access to food and water and were group housed in the AAALAC-accredited facility that was maintained on a 12 h light dark cycle (lights on at 0600 h) for at least 1 week prior to surgery or behavioral testing. All in vivo studies were performed in accordance to the ‘Guide for the Care and Use of Laboratory Animals’ as adopted and promulgated by the National Institutes of Health (Pub. 85-23, 1985).
Stereotaxic Surgery Following induction of anesthesia with 3% halothane (Fluothane; Zeneca, Cheshire, UK), animals were secured in a stereotaxic frame with ear and incisor bars (David Kopf, Tujunga, Calif.). Anesthesia was maintained by continuous administration of halothane (1-2%) while a microdialysis guide cannula (CMA/12, CMA Microdialysis, Stockholm, Sweden) was implanted above the medial prefrontal cortex (AP: 3.2 mm ML: −0.6 mm DV: −3.8 mm). […]
Dialysate (10 μL) f was collected and analyzed for extracellular glutamate concentrations. […]

c1cc2c3c(c1)[C@H]1CCC[C@H]1N3CCNC2 [Compound 1]
Sexual dysfunction (MED mg/kg) (male Sprague-Dawley rats): ≧10 mg/kg | glutamate levels compared to vehicle-treated animals [1]: 210%
